Data: ChEMBL document CHEMBL1201862, “PubChem BioAssay data set” (2004)
Calls of active or inactive are those of the source.

Key:
[1] = molecular target: T1, DNA repair protein RAD52 homolog (Homo sapiens, UniProt P43351); type: functional, biochemical
T1 sequence (P43351 whole entry): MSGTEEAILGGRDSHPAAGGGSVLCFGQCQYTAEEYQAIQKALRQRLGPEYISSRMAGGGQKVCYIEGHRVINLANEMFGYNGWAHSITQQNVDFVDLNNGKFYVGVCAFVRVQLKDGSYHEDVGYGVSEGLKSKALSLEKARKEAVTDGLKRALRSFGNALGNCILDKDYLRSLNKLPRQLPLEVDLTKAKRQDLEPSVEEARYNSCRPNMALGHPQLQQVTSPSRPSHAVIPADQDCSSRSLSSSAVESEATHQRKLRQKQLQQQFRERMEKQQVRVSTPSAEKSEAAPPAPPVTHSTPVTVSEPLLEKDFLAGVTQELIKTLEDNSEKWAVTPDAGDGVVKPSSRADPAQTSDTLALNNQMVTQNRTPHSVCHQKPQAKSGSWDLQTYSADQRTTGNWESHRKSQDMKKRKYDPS

Vero = assay: host cell cytotoxicity of antiviral hits, dose response, cytotoxicity control for West Nile virus antiviral project, secondary assay (AID 1650); type: functional; conditions: Chlorocebus sabaeus
HT-1080 = assay: cytotoxicity in HT1080 fibrosarcoma cells, cell-based, fluorescence readout (AID 620); type: functional; conditions: Homo sapiens
[2] = molecular target: T2, Luciferin 4-monooxygenase (Photinus pyralis, UniProt P08659); assay: Counter Screen for Luciferase-based Assay Positives. [Related pubchem assays: 620, 618, 411 ]
Estrogen receptor = molecular target: T3, Estrogen receptor (Homo sapiens, UniProt P03372);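 further: potency for inhibiting coactivator peptide recruitment to the receptor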
T3 sequence (P03372 whole entry): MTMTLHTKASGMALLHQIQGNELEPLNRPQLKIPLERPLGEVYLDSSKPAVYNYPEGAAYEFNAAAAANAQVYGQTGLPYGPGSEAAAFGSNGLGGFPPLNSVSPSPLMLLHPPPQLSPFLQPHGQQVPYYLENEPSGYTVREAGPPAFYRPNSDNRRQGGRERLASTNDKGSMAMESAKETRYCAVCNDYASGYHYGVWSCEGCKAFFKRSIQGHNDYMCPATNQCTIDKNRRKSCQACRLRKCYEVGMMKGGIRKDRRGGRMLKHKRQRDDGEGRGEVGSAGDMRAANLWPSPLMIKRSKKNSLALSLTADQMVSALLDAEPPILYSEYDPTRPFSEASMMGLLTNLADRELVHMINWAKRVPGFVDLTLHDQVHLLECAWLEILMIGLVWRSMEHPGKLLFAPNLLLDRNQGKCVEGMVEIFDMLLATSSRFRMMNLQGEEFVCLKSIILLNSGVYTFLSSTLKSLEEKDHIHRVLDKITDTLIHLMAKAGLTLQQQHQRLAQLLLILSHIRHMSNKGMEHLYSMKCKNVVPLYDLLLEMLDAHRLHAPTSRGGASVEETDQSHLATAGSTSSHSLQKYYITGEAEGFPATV

Estrogen receptor beta [3] = molecular target: T4, Estrogen receptor beta (Homo sapiens, UniProt Q92731); assay: ERβ–SRC-3 coactivator interaction inhibitors, confirmation, orthogonal assay, biochemical, ELISA, streptavidin-HRP readout (AID 1060)
Estrogen receptor beta [4] = molecular target: T4, Estrogen receptor beta
[5] = Luminescence Cell-Based Dose Confirmation HTS to Identify Inhibitors of Platelet Dense Granule Release. [Related pubchem assays: 1663 (Primary HTS), 1678 (Summary of Project)]; type: functional
[6] = inhibitors of SNCA 5'UTR-driven translation, confirmation, luminescence, H4 neuroglioblastoma cells, dose confirmation (AID 2454); type: functional, cell-based;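 further: H4 neuroglioblastoma cells carrying an alpha-synuclein 5'UTR luciferase reporter; potency for inhibition of the luciferase signal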
[7] = inhibitors of SNCA 5'UTR-driven reporter translation, confirmation, H4 neuroglioma cells, luminescence (AID 1988); type: functional, cell-based
[8] = molecular target: T2, Luciferin 4-monooxygenase; assay: firefly luciferase enzyme inhibitors, dose response, biochemical, luminescence (AID 1891)
[9] = luciferase reporter signal reduction – luminescence, H4-C neuroglioblastoma cells, dose response (AID 2458); type: functional, cell-based;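 further: H4 neuroglioblastoma cells stably carrying a luciferase reporter gene fusion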
[10] = molecular target: T5, Heat shock factor protein 1 (Mus musculus, UniProt P38532); assay: inhibition of MG132-induced HSE-luciferase signal, confirmation, cell-based, NIH3T3, luminescence, dose retest (AID 2382); type: functional;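 further: NIH3T3 fibroblasts with HSF1-driven luciferase reporter stressed by proteasome inhibitor MG132; luminescence from HSF1-driven luciferase expression after 8 hours of MG132 stress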
T5 sequence (P38532 whole entry): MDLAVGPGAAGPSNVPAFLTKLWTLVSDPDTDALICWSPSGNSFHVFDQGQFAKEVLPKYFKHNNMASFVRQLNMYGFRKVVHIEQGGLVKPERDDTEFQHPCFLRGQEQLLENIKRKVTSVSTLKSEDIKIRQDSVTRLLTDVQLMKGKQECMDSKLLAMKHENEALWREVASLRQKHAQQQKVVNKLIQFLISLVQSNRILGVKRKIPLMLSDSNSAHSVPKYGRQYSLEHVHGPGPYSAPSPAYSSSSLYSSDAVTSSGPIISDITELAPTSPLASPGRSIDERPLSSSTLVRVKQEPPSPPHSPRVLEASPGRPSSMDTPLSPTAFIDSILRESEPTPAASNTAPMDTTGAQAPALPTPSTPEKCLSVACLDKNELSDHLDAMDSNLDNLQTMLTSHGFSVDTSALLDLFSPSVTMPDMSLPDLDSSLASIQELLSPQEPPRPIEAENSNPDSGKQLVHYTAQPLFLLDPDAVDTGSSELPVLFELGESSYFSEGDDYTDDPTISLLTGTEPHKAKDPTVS

cells [11] = type: functional, cell-based
[12] = Shn3 3'UTR reporter inhibitors, dose response, cell-based, Clone20 osteoblasts, firefly luciferase, cherry-picked (AID 624132); type: functional;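 further: firefly luciferase luminescence from reporter carrying the Shn3 3'UTR in osteoblasts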
[13] = HepG2 cell cytotoxicity, dose response, cytotoxicity control for Shn3 inhibitor project, CellTiter-Glo, cherry-picked (AID 624134); type: functional, cell-based
[14] = inhibitors of firefly luciferase expression or activity, dose response, H4 neuroglioma cells, luminescence (AID 1990); type: functional, cell-based
[15] = Luminescence Cell-Based Dose Response HTS to Identify Inhibitors of 5'UTR Stem-Loop Driven Prion Protein mRNA Translation in H4 Neuroglioblastoma Cells. [Related pubchem assays: 1827 (Project Summary), 1813 (Primary HTS)]; type: functional
[16] = molecular target: T6, Neuropeptide Y receptor type 2 (Homo sapiens, UniProt P49146); type: functional, cell-based;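 further: HEK293 cells expressing the receptor and a CNG channel; stimulus was NPY near EC95 followed by isoproterenol to raise cAMP; antagonist potency measured as restoring cAMP signal that NPY suppresses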
T6 sequence (P49146 whole entry): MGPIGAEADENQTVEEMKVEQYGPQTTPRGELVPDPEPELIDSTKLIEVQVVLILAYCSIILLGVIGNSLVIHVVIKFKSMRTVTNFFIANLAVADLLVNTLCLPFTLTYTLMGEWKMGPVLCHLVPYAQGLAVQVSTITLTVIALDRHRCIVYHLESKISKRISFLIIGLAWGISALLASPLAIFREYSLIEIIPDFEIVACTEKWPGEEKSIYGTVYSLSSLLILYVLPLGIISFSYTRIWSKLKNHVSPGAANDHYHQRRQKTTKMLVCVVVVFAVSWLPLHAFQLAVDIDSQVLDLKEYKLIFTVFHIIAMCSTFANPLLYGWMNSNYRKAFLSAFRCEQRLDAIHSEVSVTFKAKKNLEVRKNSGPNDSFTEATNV

[17] = molecular target: T7, Neuropeptide Y receptor type 1 (Homo sapiens, UniProt P25929); type: functional;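 further: HEK293 cells with a CNG channel challenged with NPY then isoproterenol; potency as antagonist that reverses NPY suppression of cAMP signal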
T7 sequence (P25929 whole entry): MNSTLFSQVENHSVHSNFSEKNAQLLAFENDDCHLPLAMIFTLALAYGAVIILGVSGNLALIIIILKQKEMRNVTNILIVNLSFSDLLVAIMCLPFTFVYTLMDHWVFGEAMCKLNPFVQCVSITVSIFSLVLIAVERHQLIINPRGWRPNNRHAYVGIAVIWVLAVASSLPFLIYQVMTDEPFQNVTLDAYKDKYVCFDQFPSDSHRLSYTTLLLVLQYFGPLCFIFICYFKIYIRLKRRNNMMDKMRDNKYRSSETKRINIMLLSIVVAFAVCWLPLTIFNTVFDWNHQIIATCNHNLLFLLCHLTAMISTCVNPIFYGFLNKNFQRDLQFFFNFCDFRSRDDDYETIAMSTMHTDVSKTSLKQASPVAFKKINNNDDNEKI

[18] = molecular target: T8, Calpain-2 catalytic subunit (Sus scrofa, UniProt P43367); assay: pig calpain II inhibitor potency, dose response, biochemical, fluorogenic peptide substrate (AID 1420); type: functional
T8 sequence (P43367 whole entry): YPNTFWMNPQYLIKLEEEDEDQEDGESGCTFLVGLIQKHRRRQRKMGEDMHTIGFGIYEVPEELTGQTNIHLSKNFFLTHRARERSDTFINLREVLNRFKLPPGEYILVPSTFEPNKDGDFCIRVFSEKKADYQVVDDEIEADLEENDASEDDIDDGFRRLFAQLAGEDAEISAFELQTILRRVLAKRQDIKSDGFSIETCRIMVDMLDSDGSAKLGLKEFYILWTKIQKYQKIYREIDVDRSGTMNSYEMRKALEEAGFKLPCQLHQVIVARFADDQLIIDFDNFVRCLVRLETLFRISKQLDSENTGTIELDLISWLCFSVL

cells [19] = assay: cells
Major prion protein = Major prion protein (Homo sapiens, UniProt P04156); type: functional, cell-based
[20] = molecular target: T9, Mannose-6-phosphate isomerase (Homo sapiens, UniProt P34949); assay: human PMI inhibitors, high substrate, primary screen, biochemical, fluorescence intensity, high mannose 6-phosphate (AID 1220)
T9 sequence (P34949 whole entry): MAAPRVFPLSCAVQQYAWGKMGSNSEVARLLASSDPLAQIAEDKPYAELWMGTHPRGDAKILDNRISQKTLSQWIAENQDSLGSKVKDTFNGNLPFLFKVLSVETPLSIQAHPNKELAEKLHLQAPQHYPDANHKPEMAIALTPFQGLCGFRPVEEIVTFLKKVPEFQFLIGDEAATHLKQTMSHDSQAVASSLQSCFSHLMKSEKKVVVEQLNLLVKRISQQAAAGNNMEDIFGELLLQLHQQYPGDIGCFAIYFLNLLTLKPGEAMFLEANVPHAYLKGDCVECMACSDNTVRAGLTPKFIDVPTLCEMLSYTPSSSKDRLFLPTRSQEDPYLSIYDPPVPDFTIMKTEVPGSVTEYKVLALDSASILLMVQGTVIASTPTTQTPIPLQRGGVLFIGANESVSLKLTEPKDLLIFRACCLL

CCN(CC)CCNC(=O)c1cc2c(-c3cccc(OC)c3)nn(C)c2s1
AC50 [1]: 3.79 µM (active) | CC50 (Vero): > 100 µM (active)

c1ccc(-c2noc(-c3cccs3)n2)nc1
EC50 (HT-1080): > 50 µM (not active) | EC50 [2]: > 100 µM (not active)

c1ccc(OCc2nnc3sc(C4COc5ccccc5O4)nn23)cc1 (centres undefined)
IC50 (Estrogen receptor): 9.55 µM (active) | IC50 (Estrogen receptor beta [3]): < 23 nM (not active) | IC50 (Estrogen receptor beta [4]): > 50 µM (not active)

O=C(Nc1nc2cc3c(cc2s1)OCCO3)C1=COCCO1
EC50 [5]: 5.65 µM (active) | EC50 [6]: 411 nM (active) | EC50 [7]: < 100 nM (active) | EC50 [8]: 1.58 µM (active) | EC50 [9]: 432 nM (active) | EC50 [10]: 1.74 µM (active) | EC50 (cells [11]): 669 nM (active) | AC50 [12]: 2.17 µM (active) | AC50 [13]: 18.1 µM (active) | EC50 [14]: < 100 nM (active) | EC50 [15]: < 100 nM (active)

Cc1nc(-c2ccccc2)sc1C(=O)CSc1ccc(Cl)cc1
IC50 [16]: 6.99 µM (active) | IC50 [17]: 5.4 µM (active) | IC50 [18]: 11.7 µM (not active)

CCOC(=O)c1c(-c2ccc(C)s2)csc1N
IC50 (cells [19]): > 138 µM (inactive) | IC50 (Major prion protein): 104 µM (inactive) | IC50 [20]: 35.4 µM (active)
